From publication PMC3062907 (Advanced synthesis & catalysis, 2008)

What was measured:
[1] = tested on: Hsp90; assay: Hsp90 inhibition; type: biochemical; conditions: read-out: Hsp90 inhibition (IC50); in vitro; preliminary evaluation
[2] = ref ix; cited from earlier work
[3] = tested on: Rb (retinoblastoma)-negative cells; conditions: cells resistant to 17-AAG; ref x; cited from earlier work
[4] = in vivo settings; earlier work of the authors, no reference given; cited from earlier work
[5] = tested on: human colon carcinoma (HCT-116); assay: In vivo study in mice implanted with human colon carcinoma; conditions: mice implanted with HCT-116; 75 mg/kg, QDx7; preliminary
[6] = tested on: MCF-7 breast cancer cells; conditions: read-out: inhibitory activity against MCF-7 breast cancer cells (IC50); ref xiii; cited from earlier work

| SMILES | IC50 [1] [nM] | hepatotoxicity compared with 17-AAG [2] | cytotoxicity against Rb-negative cells [3] | in vivo activity [4] | tumor cell growth suppression [5] [%] | IC50 [6] [nM] |
| --- | --- | --- | --- | --- | --- | --- |
| C[C@@H]1C[C@H]2O[C@@H]2/C=C\C=C\C(=O)Cc2c(Cl)c(O)cc(O)c2C(=O)O1 [Radicicol (1), radicicol] |  | significantly less hepatotoxic than 17-AAG (3) | potent cytotoxicity | inactive |  |  |
| C[C@@H]1C[C@H]2C[C@@H]2/C=C\C=C\C(=O)Cc2c(Cl)c(O)cc(O)c2C(=O)O1 [cycloproparadicicol (4), cycloproparadicicol] | 160 |  |  |  | 68 | 49 |
